Assay results taken from article PMC6277767, “Broad and Region-Specific Impacts of the Synthetic Cannabinoid CP 55,940 in Adolescent and Adult Female Mouse Brains” (Frontiers in Molecular Neuroscience, 2018).

System: CD1 female mouse brain lipidome
Assay: Brain-region lipid levels (HPLC/MS/MS lipidomics) 2 h after single i.p. 3 mg/kg CP 55,940 vs vehicle
Assay type: in vivo
Procedure: The Bloomington Institutional Animal Care and Use Committee of Indiana University reviewed and approved the animal procedures. Female mice from the CD1 strain were utilized to match our study examining THC’s effects on the brain lipidome ([Leishman et al., 2018]). Mice were given a single i.p. injection of either 3 mg/kg CP or 1:1:18 cremophor:ethanol:saline vehicle (please refer to the section “3 mg/kg CP Is Relevant for Synthetic Cannabinoid Abuse and Has Stronger Effects on the Female Mouse Brain Lipidome During Adolescence” for a justification of dose and use of female mice). Three different age groups were given injections: PND 35 and PND 50 adolescents, and adult mice (PND 113). At least eight mice in each age group received CP and at least eight received vehicle. Matching the THC study time course ([Leishman et al., 2018]), mice were sacrificed via rapid decapitation 2 h after injection. Brains were immediately removed and flash-frozen in liquid nitrogen, and then stored at -80°C until dissections were performed. Brains were dissected on an ice-cold dissection plate into the following regions: STR, HIPP, CER, THAL, CTX, HYP, MID, and STEM. These abbreviations for these brain areas will be used exclusively when discussing the results generated by these specific dissections. Each dissected area was immediately placed in liquid nitrogen and then stored at -80°C until used for lipid extraction.
Tissue extracts were performed as previously described ([Bradshaw et al., 2006]; [Stuart et al., 2013]; [Raboune et al., 2014]; [Leishman et al., 2016a],[b], [2017], [2018]). First, samples were shock frozen in liquid nitrogen, weighed, and transferred to a centrifuge tube. The mass of the largest sample was multiplied by 50 to determine how many milliliters of HPLC-grade methanol (Fisher, Fair Lawn, NJ, United States) to add. Then, samples were spiked with 500 pmol deuterium-labeled NAGly (d8NAGly; Cayman Chemical, Ann Arbor, MI, United States). Samples were placed on ice in darkness for 2 h then individually homogenized and centrifuged at 19,000 × g for 20 min at 20°C. Supernatants were diluted with HPLC water (purified in house) to make a solution of 75% water, 25% supernatant. Lipids were partially purified on C18 solid phase extraction columns (Agilent, Palo Alto, CA, United States). A series of four elutions with 1.5 mL of 60%, 75%, 85%, and 100% methanol were collected ([Stuart et al., 2013]; [Leishman et al., 2016a],[b], [2018]).
As previously described ([Bradshaw et al., 2006]; [Tan et al., 2006]; [Smoum et al., 2010]; [Stuart et al., 2013]; [Tortoriello et al., 2013]; [Raboune et al., 2014]; [Leishman et al., 2016a],[b], [2017], [2018]), samples were analyzed using an Applied Biosystems API 3000 triple quadrupole mass spectrometer with electrospray ionization (Foster City, CA, United States). Using an Agilent XDB-C18 reversed phase analytical column and optimized mobile phase gradients, 20 μL from each elution were chromatographed. Two Shimadzu 10ADvp pumps (Columbia, MD, United States) provided the pressure for gradient elution. Mobile phase A: 20% methanol, 80% water (v/v) and 1 mM ammonium acetate (Sigma, St. Louis, MO, United States). Mobile phase B: 100% methanol, 1 mM ammonium acetate. Every method run began with 0% mobile phase B, reached 100% mobile phase B flowing at 0.2 mL/min, and gradually returned to 0% mobile phase B.
This screening library will be referred to as the lipidome when discussing data from this study. HPLC/MS/MS data were analyzed using Analyst software (Applied Biosystems) ([Bradshaw et al., 2006]; [Tan et al., 2006]; [Stuart et al., 2013]; [Tortoriello et al., 2013]; [Raboune et al., 2014]; [Leishman et al., 2016a],[b], [2017], [2018]). Chromatograms (Supplementary Figure 3) were generated by determining the retention time of analytes from the analytical column with a [M-1] or [M+1] parent peak and a fragmentation peak corresponding to the programmed values. […]

[1] = striatum, adult, 3 mg/kg CP 55,940, one-way ANOVA p .007
[2] = striatum, adult, 3 mg/kg CP 55,940, one-way ANOVA p .015
[3] = striatum, adult, 3 mg/kg CP 55,940, one-way ANOVA p .017
[4] = striatum, adult, 3 mg/kg CP 55,940, one-way ANOVA p .019
[5] = striatum, adult, 3 mg/kg CP 55,940, one-way ANOVA p .043
[6] = striatum, adult, 3 mg/kg CP 55,940, one-way ANOVA p .071
[7] = striatum, adult, 3 mg/kg CP 55,940, one-way ANOVA p .075
[8] = striatum, PND 35, 3mg/kg CP 55,940
[9] = thalamus, PND 50, 3 mg/kg CP 55,940

SMILES: CCCCCCC(C)(C)c1ccc([C@@H]2C[C@H](O)CC[C@H]2CCCO)c(O)c1 [CP 55,940]
- N-docosahexaenoyl ethanolamine, Direction (relative to Veh) [1]: ↓
- N-docosahexaenoyl ethanolamine, Magnitude (x Veh level) [1]: 0.75 x Veh level
- N-linoleoyl ethanolamine, Direction (relative to Veh) [2]: ↓
- N-linoleoyl ethanolamine, Magnitude (x Veh level) [2]: 0.68 x Veh level
- N-arachidonoyl ethanolamine, Direction (relative to Veh) [3]: ↓
- N-arachidonoyl ethanolamine, Magnitude (x Veh level) [3]: 0.66 x Veh level
- Arachidonic acid, Direction (relative to Veh) [4]: ↓
- Arachidonic acid, Magnitude (x Veh level) [4]: 0.87 x Veh level
- N-oleoyl ethanolamine, Direction (relative to Veh) [5]: ↓
- N-oleoyl ethanolamine, Magnitude (x Veh level) [5]: 0.65 x Veh level
- N-oleoyl leucine Direction (relative to Veh) [5]: ↑
- N-oleoyl leucine Magnitude (x Veh level) [5]: 1.20 x Veh level
- 2-arachidonoyl glycerol, Direction (relative to Veh) [6]: ↓
- 2-arachidonoyl glycerol, Magnitude (x Veh level) [6]: 0.78 x Veh level
- N-palmitoyl serine, Direction (relative to Veh) [7]: ↓
- N-palmitoyl serine, Magnitude (x Veh level) [7]: 0.79 x Veh level
- 2-arachidonoyl glycerol: Direction (relative to Veh) [8]: ↓
- 2-arachidonoyl glycerol: Magnitude (x Veh level) [8]: 0.70 x Veh level
- 2-linoleoyl glycerol: Direction (relative to Veh) [8]: ↓
- 2-linoleoyl glycerol: Magnitude (x Veh level) [8]: 0.57 x Veh level
- 2-oleoyl glycerol: Direction (relative to Veh) [8]: ↓
- 2-oleoyl glycerol: Magnitude (x Veh level) [8]: 0.86 x Veh level
- N-arachidonoyl GABA: Direction (relative to Veh) [8]: ↓
- N-arachidonoyl GABA: Magnitude (x Veh level) [8]: 0.66 x Veh level
- N-arachidonoyl alanine: Direction (relative to Veh) [8]: ↓
- N-arachidonoyl alanine: Magnitude (x Veh level) [8]: 0.77 x Veh level
- N-arachidonoyl glycine: Direction (relative to Veh) [8]: ↓
- N-arachidonoyl glycine: Magnitude (x Veh level) [8]: 0.87 x Veh level
- N-arachidonoyl phenylalanine: Direction (relative to Veh) [8]: ↓
- N-arachidonoyl phenylalanine: Magnitude (x Veh level) [8]: 0.83 x Veh level
- N-arachidonoyl serine: Direction (relative to Veh) [8]: ↓
- N-arachidonoyl serine: Magnitude (x Veh level) [8]: 0.64 x Veh level
- N-arachidonoyl taurine: Direction (relative to Veh) [8]: ↓
- N-arachidonoyl taurine: Magnitude (x Veh level) [8]: 0.91 x Veh level
- N-arachidonoyl tyrosine: Direction (relative to Veh) [8]: ↓
- N-arachidonoyl tyrosine: Magnitude (x Veh level) [8]: 0.77 x Veh level
- N-docosahexaenoyl GABA: Direction (relative to Veh) [8]: ↓
- N-docosahexaenoyl GABA: Magnitude (x Veh level) [8]: 0.68 x Veh level
- N-docosahexaenoyl alanine: Direction (relative to Veh) [8]: ↓
- N-docosahexaenoyl alanine: Magnitude (x Veh level) [8]: 0.72 x Veh level
- N-docosahexaenoyl ethanolamine: Direction (relative to Veh) [8]: ↓
- N-docosahexaenoyl ethanolamine: Magnitude (x Veh level) [8]: 0.74 x Veh level
- N-docosahexaenoyl leucine: Direction (relative to Veh) [8]: ↑
- N-docosahexaenoyl leucine: Magnitude (x Veh level) [8]: 1.46 x Veh level
- N-docosahexaenoyl serine: Direction (relative to Veh) [8]: ↓
- N-docosahexaenoyl serine: Magnitude (x Veh level) [8]: 0.68 x Veh level
- N-oleoyl GABA: Direction (relative to Veh) [8]: ↓
- N-oleoyl GABA: Magnitude (x Veh level) [8]: 0.76 x Veh level
- N-oleoyl alanine: Direction (relative to Veh) [8]: ↓
- N-oleoyl alanine: Magnitude (x Veh level) [8]: 0.89 x Veh level
- N-oleoyl ethanolamine: Direction (relative to Veh) [8]: ↓
- N-oleoyl ethanolamine: Magnitude (x Veh level) [8]: 0.60 x Veh level
- N-oleoyl glycine: Direction (relative to Veh) [8]: ↓
- N-oleoyl glycine: Magnitude (x Veh level) [8]: 0.88 x Veh level
- N-palmitoyl ethanolamine: Direction (relative to Veh) [8]: ↓
- N-palmitoyl ethanolamine: Magnitude (x Veh level) [8]: 0.72 x Veh level
- N-palmitoyl leucine: Direction (relative to Veh) [8]: ↑
- N-palmitoyl leucine: Magnitude (x Veh level) [8]: 1.17 x Veh level
- N-palmitoyl valine: Direction (relative to Veh) [8]: ↑
- N-palmitoyl valine: Magnitude (x Veh level) [8]: 1.68 x Veh level
- N-stearoyl alanine: Direction (relative to Veh) [8]: ↓
- N-stearoyl alanine: Magnitude (x Veh level) [8]: 0.90 x Veh level
- N-stearoyl leucine: Direction (relative to Veh) [8]: ↓
- N-stearoyl leucine: Magnitude (x Veh level) [8]: 0.81 x Veh level
- N-stearoyl serine: Direction (relative to Veh) [8]: ↓
- N-stearoyl serine: Magnitude (x Veh level) [8]: 0.86 x Veh level
- N-stearoyl valine: Direction (relative to Veh) [8]: ↑
- N-stearoyl valine: Magnitude (x Veh level) [8]: 1.43 x Veh level
- PGE2: Direction (relative to Veh) [8]: ↑
- PGE2: Magnitude (x Veh level) [8]: 1.25 x Veh level
- PGF2α: Direction (relative to Veh) [8]: ↑
- PGF2α: Magnitude (x Veh level) [8]: 1.30 x Veh level
- 2-arachidonoyl glycerol: Direction (relative to Veh) [9]: ↓
- 2-arachidonoyl glycerol: Magnitude (x Veh level) [9]: 0.84 x Veh level
- 2-linoleoyl glycerol: Direction (relative to Veh) [9]: ↓
- 2-linoleoyl glycerol: Magnitude (x Veh level) [9]: 0.68 x Veh level
- 2-oleoyl glycerol: Direction (relative to Veh) [9]: ↓
- 2-oleoyl glycerol: Magnitude (x Veh level) [9]: 0.78 x Veh level
- 6-ketoPGF1α: Direction (relative to Veh) [9]: ↑
- 6-ketoPGF1α: Magnitude (x Veh level) [9]: 1.52 x Veh level
- Arachidonic acid: Direction (relative to Veh) [9]: ↓
- Arachidonic acid: Magnitude (x Veh level) [9]: 0.77 x Veh level
- Linoleic acid: Direction (relative to Veh) [9]: ↓
- Linoleic acid: Magnitude (x Veh level) [9]: 0.73 x Veh level
- N-arachidonoyl GABA: Direction (relative to Veh) [9]: ↓
- N-arachidonoyl GABA: Magnitude (x Veh level) [9]: 0.68 x Veh level
- N-arachidonoyl ethanolamine: Direction (relative to Veh) [9]: ↓
- N-arachidonoyl ethanolamine: Magnitude (x Veh level) [9]: 0.85 x Veh level
- N-arachidonoyl glycine: Direction (relative to Veh) [9]: ↓
- N-arachidonoyl glycine: Magnitude (x Veh level) [9]: 0.63 x Veh level
- N-arachidonoyl phenylalanine: Direction (relative to Veh) [9]: ↓
- N-arachidonoyl phenylalanine: Magnitude (x Veh level) [9]: 0.51 x Veh level
- N-arachidonoyl taurine: Direction (relative to Veh) [9]: ↓
- N-arachidonoyl taurine: Magnitude (x Veh level) [9]: 0.88 x Veh level
- N-arachidonoyl tyrosine: Direction (relative to Veh) [9]: ↓
- N-arachidonoyl tyrosine: Magnitude (x Veh level) [9]: 0.78 x Veh level
- N-docosahexaenoyl GABA: Direction (relative to Veh) [9]: ↓
- N-docosahexaenoyl GABA: Magnitude (x Veh level) [9]: 0.70 x Veh level
- N-linoleoyl GABA: Direction (relative to Veh) [9]: ↓
- N-linoleoyl GABA: Magnitude (x Veh level) [9]: 0.57 x Veh level
- N-palmitoyl leucine: Direction (relative to Veh) [9]: ↑
- N-palmitoyl leucine: Magnitude (x Veh level) [9]: 1.27 x Veh level
